# Experimental data as given in patent publication US20250340846A1, “PATIENT-DERIVED CELL-CONTAINING DROPLETS ENABLE CLINICAL PRECISION ONCOLOGY” (Xilis, Inc., priority 2022, published 2025).
# Legend:
# [1] = tested on: MOS from metastatic rectal cancer biopsy; assay: High-throughput drug screen on patient-derived MOS, CellTiter-Glo viability; format: cell-based, human; conditions: 1 μM, 72 hours, 30 tumor cells per MOS
# Experimental: (§1) Drug High-Throughput Screening: Automated liquid handling was provided by the Echo Acoustic Dispenser (Labcyte) for drug administration or Well mate (Thermo Fisher) for cell plating, and assays were performed using a Clariosean plate reader (BMG Labtech). Immediately prior to cell plating, 384 well plates were stamped with 119 FDA-approved drug compounds at a final concentration of 1 μM. The compound library (Approved Oncology Set VI) was provided by the NCI Developmental Therapeutics Program (https://dtp.cancer.gov/). MOS were plated in these drug pre-coated plates at 100 MOS/well with each MOS containing 30 cells/droplet. Cell viabilities were assessed via CellTiter-Glo Luminescent Cell Viability Assay (Promega, USA) 72 hours after cell plating. Percent cytotoxicity was quantified using the following formula: 100*[1-(average CellTiterGlo^drug/average CellTiterGlo^control)].
# Since clinical treatment decisions are often made within 10-14 days of diagnosis, an ideal diagnostic assay would give results within 14 days and use minimal tissue (e.g., core biopsies) to predict clinical outcome. In an initial study, a biopsy was obtained from a patient presenting with metastatic rectal cancer, and MOS (30 tumor cells per MOS) were established within 8 days of biopsy. […]
# [2] = tested on: metastatic CRC patient-derived MOS; assay: Oxaliplatin drug testing of MOS from CRC core biopsies (Cell Titer Glo); format: cell-based, human; conditions: 1 μM and 10 μM, cut-off 50% killing
# Experimental: as §1
# A prospective clinical study was then designed and conducted. Core biopsies (18-gauge) were obtained from seven additional patients presenting with metastatic CRC, MOS were generated, and drug testing was performed (FIGS. 1H and 1I). MOS (30 tumor cells per MOS) were generated and responses to oxaliplatin were tested within 13 days (9.9 days on average) from time of biopsy for all eight biopsy samples, with a success rate of 100% (8/8) (TABLE 2). Given the limited tissue volume, dosages of 1 μM and 10 μM were selected based on studies disclosed elsewhere (Vlachogiannis et al., Science 359, 920-926, 2018, Ooft et al., Science Translational Med 11, 2019; Ganesh et al., Nat Med 25, 1607-1614, 2019; and Yao et al., Trends Immunol 41, 652-664, 2020). The same cut-off as measured via Cell Titer Glo was used. Among the eight patients, four had oxaliplatin-sensitive MOS and four had oxaliplatin-resistant MOS (FIG. 1J).
# metastatic CRC = assay: Clinical outcome of patients on oxaliplatin-based therapy (CT scan, time on treatment); format: in vivo, human
# Text: All eight patients received oxaliplatin-based therapy per usual treatment guidelines. Patient outcomes were subsequently evaluated by CT scan before and after oxaliplatin treatment (FIGS. 2B-2H), and time-on-treatment was compared to MOS oxaliplatin sensitivity.
# [3] = tested on: CRC MOS lines resistant to oxaliplatin; assay: Caspase 3/7 fluorescence imaging of oxaliplatin-treated CRC MOS; format: cell-based, human; conditions: two oxaliplatin-resistant CRC MOS lines (CRC1282, CRC1297), 20 cells per MOS
# Experimental: Cell death for each MOS was measured by imaging the Caspase 3/7 fluorescence signal and normalizing it by the cell surface area inside each MOS.
# [4] = tested on: MOS generated from NSCLC patient samples; assay: IO assay, Incucyte Annexin V, MOS with tumor-resident immune cells; format: cell-based, human; conditions: 10 μg/mL, day 4 MOS, 30 tumor cells per MOS
# Experimental: (§2) IO assay and Incucyte live cell imaging: MOS generated from primary tumor tissue were plated into 96-well plates with a density of 30-50 MOS per well supplied with culture medium without Y compound. Day 3 or day 4 MOS were treated with ESK1*, DP47 or Nivolumab for at least 3 days and imaged in Incucyte during the treatment. When performing immune cell potency assay, pre-activated PBMCs or matched TILs were stained with Cytolight Rapid red dye following manufacturer instructions. Briefly, Cytolight Rapid Red dye in one vial was diluted with 20 μl DMSO and further diluted 10-fold in PBS. PBMC or TILs were incubated at 37° C. with 5 μl diluted Cytolight Red dye (500X) in PBS for 25 minutes. After one wash with PBS, PBMC or TILs were counted and resuspended into wells containing MOS and culture medium at an effector: target ratio of 5:1 or 10:1. Annexin V green dye, Caspase 3/7 green dye, or Cytotox green dye was added into each well following manufacturer instruction. Plates were loaded into Incucyte S3 and images were taken every 2 hours for 4-5 days.
# (§3) MOS generated from NSCLC patient samples at a density of 30 tumor cells per MOS formed tumorsphere-like structures in the presence of tumor-resident immune cells. MOS (day 4) were then treated with anti-PD1 therapy nivolumab at 10 μg/mL and Annexin V was used to evaluate cell apoptosis. […]
# [5] = tested on: MOS derived from a kidney cancer patient; assay: IO assay, Incucyte Annexin V, kidney tumor MOS; format: cell-based, human; conditions: nivolumab alone, day 3 MOS
# Experimental: as §2, §3
# lung tumor MOS = assay: IO assay with immunotherapy and MHC block, matched TILs; format: cell-based, human
# Experimental: IO assay with immunotherapy and MHC block: Lung tumor MOS were incubated with anti-MHC I/II antibodies (W6/32; Tu39, Cat #361702, Biolegend) at a concentration of 20 μg/mL for 45 minutes at 37° C. before seeding into a 96-well plate at a density of 30-50 MOS per well supplied with lung tumor culture medium without Y-27632. Non-MHC-blocked MOS were used as controls. Matched TILs were added to each well at a 5:1 effector: target ratio. Nivolumab was added to wells at a working concentration of 10 μg/mL. The CD2/CD3/CD28 T cell activator reagent was added at a working concentration of 25 μl/mL. Annexin V was added into each well following the manufacturer's instructions.
# Adjunctive therapies were explored by first combining PD-1 blockade (nivolumab) with autologous TILs against matched lung tumor MOS. […] TCB were then combined with autologous TILs or allogeneic PBMCs to treat lung cancer MOS (20 cells per MOS) expressing HLA-A2. ESK1* enhanced both TIL- and PBMC-induced tumor cell death compared to DP47 (FIGS. 11I, 11J, 12J, and 12K). Annexin V signals were higher in MOS treated with ESK1* vs. DP47 in all seven lung cancer samples (FIG. 11K). […] Heterogeneity in drug response between MOS from the same patient was observed and quantified (FIGS. 12K and 12L).
compound,measurement,setting,value
O=C1[O][Pt]2([NH][C@@H]3CCCC[C@H]3[NH]2)[O]C1=O [oxaliplatin],% killing,[1],> 50%
same,MOS Prediction,[2]; patient CRC-MOS-001,Sensitive
same,MOS Prediction,[2]; patient CRC-MOS-002,Resistance
same,MOS Prediction,[2]; patient CRC-MOS-003,Sensitive
same,MOS Prediction,[2]; patient CRC-MOS-004,Resistance
same,MOS Prediction,[2]; patient CRC-MOS-005,Sensitive
same,MOS Prediction,[2]; patient CRC-MOS-006,Resistance
same,MOS Prediction,[2]; patient CRC-MOS-007,Sensitive
same,MOS Prediction,[2]; patient CRC-MOS-008,Resistance
same,patient tumor response to oxaliplatin-based therapy,"metastatic CRC; metastatic rectal cancer patient, 6 months later",still responded
same,Clinical Outcome,"metastatic CRC; patient CRC-MOS-001, oxaliplatin-based therapy",Response
same,Response Time,"metastatic CRC; patient CRC-MOS-001, time on oxaliplatin-based treatment",46 wks
same,Clinical Outcome,"metastatic CRC; patient CRC-MOS-002, oxaliplatin-based therapy",Response
same,Response Time,"metastatic CRC; patient CRC-MOS-002, time on oxaliplatin-based treatment",28 wks
same,Clinical Outcome,"metastatic CRC; patient CRC-MOS-003, oxaliplatin-based therapy",Response
same,Response Time,"metastatic CRC; patient CRC-MOS-003, time on oxaliplatin-based treatment",38 wks
same,Clinical Outcome,"metastatic CRC; patient CRC-MOS-004, oxaliplatin-based therapy",No Response
same,Response Time,"metastatic CRC; patient CRC-MOS-004, time on oxaliplatin-based treatment",8 wks
same,Clinical Outcome,"metastatic CRC; patient CRC-MOS-005, oxaliplatin-based therapy",Response
same,Response Time,"metastatic CRC; patient CRC-MOS-005, time on oxaliplatin-based treatment",36 wks
same,Clinical Outcome,"metastatic CRC; patient CRC-MOS-006, oxaliplatin-based therapy",No Response
same,Response Time,"metastatic CRC; patient CRC-MOS-006, time on oxaliplatin-based treatment",3 wks
same,Clinical Outcome,"metastatic CRC; patient CRC-MOS-007, oxaliplatin-based therapy",No Response
same,Response Time,"metastatic CRC; patient CRC-MOS-007, time on oxaliplatin-based treatment",24 wks
same,Clinical Outcome,"metastatic CRC; patient CRC-MOS-008, oxaliplatin-based therapy",No Response
same,Response Time,"metastatic CRC; patient CRC-MOS-008, time on oxaliplatin-based treatment",6 wks
same,"cell killing, Caspase 3/7 signal normalized by cell surface area",[3],only the highest dosages induced significant cell killing
CCc1c2c(nc3ccc(OC(=O)N4CCC(N5CCCCC5)CC4)cc13)-c1cc3c(c(=O)n1C2)COC(=O)[C@]3(O)CC [irinotecan],% killing,[1],< 50%
nivolumab,death of tumorspheres within MOS (Annexin V),[4],induced death in the tumorspheres
same,killing of tumorspheres inside MOS (Annexin V),[5],did not enhance killing
same,TIL-mediated killing inside MOS (Annexin V),"lung tumor MOS; 10 μg/mL with autologous TILs, effector:target 5:1",enhanced TIL-mediated killing
same,TIL-mediated killing inside MOS (Annexin V) with MHC block,"lung tumor MOS; anti-MHC I/II antibodies 20 μg/mL, autologous TILs",abrogated
